Experiments:
[1] = tested on: Caco2-HIF1α-HiBiT-clone-1 cells; assay: Caco-2 HIF1α-HiBiT assay; assay type: cell-based; settings: Homo sapiens, Caco-2; Caco2-HIF1α-HiBiT-clone-1 cells, 6 h incubation, luminescence; read-out: Caco2-HIF1α-HiBit assay - EC50
PHD2 = PHD2 (Homo sapiens, UniProt Q9GZT9); assay: PHD2 enzymatic assay (AlphaScreen); assay type: biochemical; settings: PHD2 enzyme, AlphaScreen, IC50 from % inhibition; read-out: PHD2
PHD2, sequence (Q9GZT9 whole entry): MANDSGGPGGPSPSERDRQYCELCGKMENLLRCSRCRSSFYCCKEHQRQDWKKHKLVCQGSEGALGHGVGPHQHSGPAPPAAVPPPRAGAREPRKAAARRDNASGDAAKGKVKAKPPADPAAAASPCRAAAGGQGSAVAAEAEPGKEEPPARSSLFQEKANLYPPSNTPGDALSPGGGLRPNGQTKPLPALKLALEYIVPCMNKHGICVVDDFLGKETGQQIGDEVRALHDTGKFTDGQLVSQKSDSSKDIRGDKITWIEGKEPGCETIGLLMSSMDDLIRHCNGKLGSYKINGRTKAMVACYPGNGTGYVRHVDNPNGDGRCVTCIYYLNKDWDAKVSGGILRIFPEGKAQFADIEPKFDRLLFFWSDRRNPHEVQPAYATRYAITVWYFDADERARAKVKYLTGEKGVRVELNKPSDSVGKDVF

| Structure (SMILES) | EC50 [1] | IC50 (PHD2) |
| --- | --- | --- |
| N#Cc1ccc([C@@H](CO)NC(=O)c2ncc3nc(N4CCOCC4)ccc3c2O)cn1 [Example 64] | 10000 to 100000 nM | 100 to 1000 nM |
| CN1CCN(c2ccc3c(O)c(C(=O)NCc4ccc(C#N)nc4)ncc3n2)CC1=O [Example 66] | 10000 to 100000 nM | < 5 nM |
| N#Cc1ccc(CNC(=O)c2ncc3nc(N4CCN(C5CC5)[C@@H](CO)C4)ccc3c2O)c(Cl)c1 [Example 70] | 2500 to 5000 nM | 5 to 20 nM |
| N#Cc1ccc(CNC(=O)c2ncc3nc(N4CCN(C5CC5)[C@H](CO)C4)ccc3c2O)c(Cl)c1 [Example 71] | 2500 to 5000 nM | 5 to 20 nM |
| N#Cc1ccc(CNC(=O)c2ncc3nc(N4CCN(C(=O)CCO)CC4)ccc3c2O)cn1 [Example 72, N-((6-cyanopyridin-3-yl)methyl)-5-hydroxy-2-(4-(3-hydroxypropanoyl)piperazin-1-yl)-1,7-naphthyridine-6-carboxamide] | 5000 to 7500 nM | < 5 nM |
| COCCC(=O)N1CCN(c2ccc3c(O)c(C(=O)NCc4ccc(C#N)nc4)ncc3n2)CC1 [Example 73, N-((6-cyanopyridin-3-yl)methyl)-5-hydroxy-2-(4-(3-methoxypropanoyl)piperazin-1-yl)-1,7-naphthyridine-6-carboxamide] | 5000 to 7500 nM | < 5 nM |
| N#Cc1ccc(CNC(=O)c2ncc3nc(N4CCN(CCO)CC4)ccc3c2O)cn1 [Example 74] | 2500 to 5000 nM | < 5 nM |
| COCCN1CCN(c2ccc3c(O)c(C(=O)NCc4ccc(C#N)nc4)ncc3n2)CC1 [Example 75] | 5000 to 7500 nM | < 5 nM |
| COC(=O)C1CN(c2ccc3c(O)c(C(=O)NCc4ccc(C#N)nc4)ncc3n2)C1 [Example 84] | 5000 to 7500 nM | < 5 nM |
| N#Cc1ccc(CNC(=O)c2ncc3nc(N4CCOC(=O)C4)ccc3c2O)cn1 [Example 85, N-((6-cyanopyridin-3-yl)methyl)-5-hydroxy-2-(2-oxomorpholino)-1,7-naphthyridine-6-carboxamide] | 10000 to 100000 nM | < 5 nM |
| COCCOC(=O)C1CCN(c2ccc3c(O)c(C(=O)NCc4ccc(C#N)nc4)ncc3n2)CC1 [Example 86] | 10000 to 100000 nM | < 5 nM |
| COC(=O)[C@H]1CN(c2ccc3c(O)c(C(=O)NCc4ccc(C#N)nc4)ncc3n2)CCN1C1CC1 [Example 89] | 2500 to 5000 nM | < 5 nM |
| COC(=O)[C@H]1CN(c2ccc3c(O)c(C(=O)NCc4ccc(C#N)nc4)ncc3n2)CCO1 [Example 92] | 5000 to 7500 nM | < 5 nM |
| CCOC(=O)C1CCN(c2ccc3c(O)c(C(=O)NCc4ccc(C#N)nc4)ncc3n2)CC1 [Example 94] | 7500 to 10000 nM | < 5 nM |
| CC(C)OC(=O)C1CCN(c2ccc3c(O)c(C(=O)NCc4ccc(C#N)nc4)ncc3n2)CC1 [Example 95] | 10000 to 100000 nM | < 5 nM |
| N#Cc1ccc(CNC(=O)c2ncc3nc(N4CCC(C(=O)OC5CC5)CC4)ccc3c2O)cn1 [Example 96] | 10000 to 100000 nM | < 5 nM |
| N#Cc1ccc(CNC(=O)c2ncc3nc(N4CCOCC4=O)ccc3c2O)cn1 [Example 100] | 7500 to 10000 nM | 5 to 20 nM |
| CC(C)(C)OC(=O)N1CCN(c2ccc3c(O)c(C(=O)NCc4ccc(C#N)nc4)ncc3n2)C(=O)C1 [Example 101] | 2500 to 5000 nM | < 5 nM |
| N#Cc1ccc(CNC(=O)c2ncc3nc(N4CCOC4=O)ccc3c2O)cn1 [Example 103] | 2500 to 5000 nM | < 5 nM |
| N#Cc1ccc(CNC(=O)c2ncc3nc(N4CC(O)(CO)C4)ccc3c2O)cn1 [Example 119] | 10000 to 100000 nM | < 5 nM |

| Structure (SMILES) | EC50 [1] | IC50 (PHD2) |
| --- | --- | --- |
| COC(=O)N1CCN(c2ccc3c(O)c(C(=O)NCc4ccc(C#N)nc4)ncc3n2)CC1 [Example 120] | 10000 to 100000 nM | < 5 nM |
| COC(=O)C1(O)CN(c2ccc3c(O)c(C(=O)NCc4ccc(C#N)nc4)ncc3n2)C1 [Example 121] | 7500 to 10000 nM | < 5 nM |
| CC(C)(C)OC(=O)NC1CCN(c2ccc3c(O)c(C(=O)NCc4ccc(C#N)nc4)ncc3n2)CC1 [Example 123] | 2500 to 5000 nM | < 5 nM |
| N#Cc1ccc(CNC(=O)c2ncc3nc(N4CCC(N)CC4)ccc3c2O)cn1 [Example 124, 2-(4-aminopiperidin-1-yl)-N-((6-cyanopyridin-3-yl)methyl)-5-hydroxy-1,7-naphthyridine-6-carboxamide] | 10000 to 100000 nM | < 5 nM |
| CC(C)(C)OC(=O)N[C@H]1CCN(c2ccc3c(O)c(C(=O)NCc4ccc(C#N)nc4)ncc3n2)C1 [Example 125] | < 2500 nM | < 5 nM |
| N#Cc1ccc(CNC(=O)c2ncc3nc(N4CC[C@H](N)C4)ccc3c2O)cn1 [Example 126, (S)-2-(3-aminopyrrolidin-1-yl)-N-((6-cyanopyridin-3-yl)methyl)-5-hydroxy-1,7-naphthyridine-6-carboxamide] | 10000 to 100000 nM | < 5 nM |
| CC(C)(C)OC(=O)NC1CN(c2ccc3c(O)c(C(=O)NCc4ccc(C#N)nc4)ncc3n2)C1 [Example 127] | < 2500 nM | < 5 nM |
| N#Cc1ccc(CNC(=O)c2ncc3nc(N4CC(N)C4)ccc3c2O)cn1 [Example 128, 2-(3-aminoazetidin-1-yl)-N-((6-cyanopyridin-3-yl)methyl)-5-hydroxy-1,7-naphthyridine-6-carboxamide] | 5000 to 7500 nM | 20 to 100 nM |
| CC(C)(C)OC(=O)N1CCN(c2ccc3c(O)c(C(=O)NCc4ccc(C#N)nc4)ncc3n2)C[C@@H]1C#N [Example 132] | 5000 to 7500 nM | < 5 nM |
| CC(C)(C)OC(=O)N1CCN(c2ccc3c(O)c(C(=O)NCc4cnc(C#N)nc4)ncc3n2)CC1 [Example 133] | 2500 to 5000 nM | 5 to 20 nM |
| CC1(OC(=O)N2CCN(c3ccc4c(O)c(C(=O)NCc5ccc(C#N)nc5)ncc4n3)CC2)CC1 [Example 137] | < 2500 nM | < 5 nM |
| CC(C)OC(=O)N1CCN(c2ccc3c(O)c(C(=O)NCc4ccc(C#N)nc4)ncc3n2)CC1 [Example 138] | 2500 to 5000 nM | < 5 nM |
| C[C@H]1CN(C(=O)OC(C)(C)C)CCN1c1ccc2c(O)c(C(=O)NCc3ccc(C#N)nc3)ncc2n1 [Example 139] | 2500 to 5000 nM | < 5 nM |
| CC(C)(C)OC(=O)N[C@@H]1CCN(c2ccc3c(O)c(C(=O)NCc4ccc(C#N)nc4)ncc3n2)C1 [Example 140] | 2500 to 5000 nM | 5 to 20 nM |
| CC(C)(C)OC(=O)N[C@@H]1CN(c2ccc3c(O)c(C(=O)NCc4ccc(C#N)nc4)ncc3n2)C[C@@H]1F [Example 142] | 2500 to 5000 nM | 5 to 20 nM |
| CC(C)(C)OC(=O)N[C@H]1CC(=O)N(c2ccc3c(O)c(C(=O)NCc4ccc(C#N)nc4)ncc3n2)C1 [Example 143] | < 2500 nM | < 5 nM |
| CC(C)(C)OC(=O)NC1CCN(c2ccc3c(O)c(C(=O)NCc4ccc(C#N)nc4)ncc3n2)C1=O (centres unmarked) [Example 144] | 2500 to 5000 nM | 5 to 20 nM |
| C[C@@H]1CN(c2ccc3c(O)c(C(=O)NCc4ccc(C#N)nc4)ncc3n2)CCN1C(=O)OC(C)(C)C [Example 149] | 2500 to 5000 nM | < 5 nM |
| C[C@@H]1CN(C(=O)OC(C)(C)C)CCN1c1ccc2c(O)c(C(=O)NCc3ccc(C#N)nc3)ncc2n1 [Example 150] | < 2500 nM | < 5 nM |
| COC(=O)CC1CN(c2ccc3c(O)c(C(=O)NCc4ccc(C#N)nc4)ncc3n2)C1 [Example 152] | 2500 to 5000 nM | < 5 nM |

Source: US12071443B2, “Prolyl hydroxylase domain-containing protein (PHD) inhibitors and uses thereof” (Insilico Medicine IP Limited, priority 2021, dated 2024)
